Patent US9580444B2, “Polycyclic pyrazolinone derivative and herbicide comprising same as effective component thereof” (priority 2013, dated 2017)

What follows are compounds tested on Echinochloa oryzicola (barnyard grass) (assay: Test Example-1: herbicidal effect by a treatment before weeds are generated under submerged conditions). Settings: 500 g a.i/ha, pre-emergence treatment, about 15 days after treatment, score 0-5.
Type: in vivo
Procedure: (§1) Using the formulation prepared according to the methods described above, the herbicidal effect of the bicyclic pyrazolinone derivative of the invention according to the methods shown in Test Examples below was examined. The herbicidal effect with respect to the test weeds or the phytotoxicity with respect to the test crops was examined according to the following criteria, and evaluated in six stage scores of 0 to 5.
(§2) A plastic cup of 30 cm^2 was filled with paddy soil, soil puddling was performed, seeds of Echinochloa oryzicola (barnyard grass), Cyperus difformis (smallflower umbrella plant), Monochoria vaginalis (monochoria), Scirpus juncoides (bulrush), and Eleocharis acicularis (needle spikerush), and Lindernia procumbens (common false pimpernel), Rotala indica (indian toothcup), Elatine triandra (waterwort) as other annual broad leaf weeds were seeded therein, and kept in a submerged state. A wettable powder or an emulsifiable concentrate of the compound of the present invention prepared according to Formulation Example was diluted on the weed seeding day, and a submersing treatment was performed so as to be a predetermined dosage. The herbicidal effect with respect to the test weeds about 15 days after the treatment was evaluated according to the evaluation criteria in six stages of 0 to 5 described above.

Structure (SMILES) | Herbicidal effect Echinochloa oryzicola
CCCOC(=CC(=O)OCC(C)C)COc1cc(-c2c(Cl)n3n(c2=O)CCCC3)c(F)cc1Cl [Compound 2-34] | 5 (Herbicidal effect/phytotoxicity was 90% or greater)
O=c1c(-c2ccc(F)cc2F)c(Cl)n2n1CCCC2 [Example 1-75] | 5 (Herbicidal effect/phytotoxicity was 90% or greater)
COc1cc(-c2c(Cl)n3n(c2=O)CCCCC3)c(Cl)cc1Cl [Example 1-293] | 5 (Herbicidal effect/phytotoxicity was 90% or greater)
COc1ccc(Oc2cc(-c3c(Cl)n4n(c3=O)CCCC4)c(F)cc2Cl)cc1 [Compound 3-7] | 5 (Herbicidal effect/phytotoxicity was 90% or greater)
C#CCN(C)c1cc(-c2c(Cl)n3n(c2=O)CCCC3)c(F)cc1Cl [Example 5-68] | 5 (Herbicidal effect/phytotoxicity was 90% or greater)
CC1(COc2cc(-c3c(Cl)n4n(c3=O)CCCC4)c(F)cc2Cl)CC(c2ccc(F)cc2)=NO1 (stereo not drawn) [Compound 4-7] | 5 (Herbicidal effect/phytotoxicity was 90% or greater)
O=c1c(-c2cc(Oc3c(F)cc(C(F)(F)F)cc3Cl)c(Cl)cc2F)c(Cl)n2n1CCCC2 [Example 1-254] | 5 (Herbicidal effect/phytotoxicity was 90% or greater)
CCOC(=CC(=O)OC(C)C)COc1cc(-c2c(Cl)n3n(c2=O)CCCC3)c(F)cc1Cl [Compound 2-26] | 5 (Herbicidal effect/phytotoxicity was 90% or greater)

These compounds were tested on Scirpus juncoides (bulrush) in the same assay as above. Settings: 500 g a.i/ha, pre-emergence treatment, about 15 days after treatment, score 0-5.
Type: in vivo
Procedure: as §1, §2

Structure (SMILES) | Herbicidal effect Scirpus juncoides
CCCOC(=CC(=O)OCC(C)C)COc1cc(-c2c(Cl)n3n(c2=O)CCCC3)c(F)cc1Cl [Compound 2-34] | 5 (Herbicidal effect/phytotoxicity was 90% or greater)
O=c1c(-c2ccc(F)cc2F)c(Cl)n2n1CCCC2 [Example 1-75] | 5 (Herbicidal effect/phytotoxicity was 90% or greater)
COc1cc(-c2c(Cl)n3n(c2=O)CCCCC3)c(Cl)cc1Cl [Example 1-293] | 5 (Herbicidal effect/phytotoxicity was 90% or greater)
COc1ccc(Oc2cc(-c3c(Cl)n4n(c3=O)CCCC4)c(F)cc2Cl)cc1 [Compound 3-7] | 5 (Herbicidal effect/phytotoxicity was 90% or greater)
C#CCN(C)c1cc(-c2c(Cl)n3n(c2=O)CCCC3)c(F)cc1Cl [Example 5-68] | 5 (Herbicidal effect/phytotoxicity was 90% or greater)
CC1(COc2cc(-c3c(Cl)n4n(c3=O)CCCC4)c(F)cc2Cl)CC(c2ccc(F)cc2)=NO1 (stereo not drawn) [Compound 4-7] | 5 (Herbicidal effect/phytotoxicity was 90% or greater)
O=c1c(-c2cc(Oc3c(F)cc(C(F)(F)F)cc3Cl)c(Cl)cc2F)c(Cl)n2n1CCCC2 [Example 1-254] | 5 (Herbicidal effect/phytotoxicity was 90% or greater)
CCOC(=CC(=O)OC(C)C)COc1cc(-c2c(Cl)n3n(c2=O)CCCC3)c(F)cc1Cl [Compound 2-26] | 5 (Herbicidal effect/phytotoxicity was 90% or greater)

Each compound was assayed on Cyperus difformis (smallflower umbrella plant) in the same assay as above. Settings: 500 g a.i/ha, pre-emergence treatment, about 15 days after treatment, score 0-5.
Type: in vivo
Procedure: as §1, §2

Structure (SMILES) | Herbicidal effect Cyperus difformis
CCCOC(=CC(=O)OCC(C)C)COc1cc(-c2c(Cl)n3n(c2=O)CCCC3)c(F)cc1Cl [Compound 2-34] | 5 (Herbicidal effect/phytotoxicity was 90% or greater)
O=c1c(-c2ccc(F)cc2F)c(Cl)n2n1CCCC2 [Example 1-75] | 5 (Herbicidal effect/phytotoxicity was 90% or greater)
COc1cc(-c2c(Cl)n3n(c2=O)CCCCC3)c(Cl)cc1Cl [Example 1-293] | 5 (Herbicidal effect/phytotoxicity was 90% or greater)
COc1ccc(Oc2cc(-c3c(Cl)n4n(c3=O)CCCC4)c(F)cc2Cl)cc1 [Compound 3-7] | 5 (Herbicidal effect/phytotoxicity was 90% or greater)
C#CCN(C)c1cc(-c2c(Cl)n3n(c2=O)CCCC3)c(F)cc1Cl [Example 5-68] | 5 (Herbicidal effect/phytotoxicity was 90% or greater)
CC1(COc2cc(-c3c(Cl)n4n(c3=O)CCCC4)c(F)cc2Cl)CC(c2ccc(F)cc2)=NO1 (stereo not drawn) [Compound 4-7] | 5 (Herbicidal effect/phytotoxicity was 90% or greater)
O=c1c(-c2cc(Oc3c(F)cc(C(F)(F)F)cc3Cl)c(Cl)cc2F)c(Cl)n2n1CCCC2 [Example 1-254] | 5 (Herbicidal effect/phytotoxicity was 90% or greater)
CCOC(=CC(=O)OC(C)C)COc1cc(-c2c(Cl)n3n(c2=O)CCCC3)c(F)cc1Cl [Compound 2-26] | 5 (Herbicidal effect/phytotoxicity was 90% or greater)

These compounds were tested on Eleocharis acicularis (needle spikerush) in the same assay as above. Settings: 500 g a.i/ha, pre-emergence treatment, about 15 days after treatment, score 0-5.
Type: in vivo
Procedure: as §1, §2

Structure (SMILES) | Herbicidal effect Eleocharis acicularis
CCCOC(=CC(=O)OCC(C)C)COc1cc(-c2c(Cl)n3n(c2=O)CCCC3)c(F)cc1Cl [Compound 2-34] | 5 (Herbicidal effect/phytotoxicity was 90% or greater)
O=c1c(-c2ccc(F)cc2F)c(Cl)n2n1CCCC2 [Example 1-75] | 5 (Herbicidal effect/phytotoxicity was 90% or greater)
COc1cc(-c2c(Cl)n3n(c2=O)CCCCC3)c(Cl)cc1Cl [Example 1-293] | 5 (Herbicidal effect/phytotoxicity was 90% or greater)
COc1ccc(Oc2cc(-c3c(Cl)n4n(c3=O)CCCC4)c(F)cc2Cl)cc1 [Compound 3-7] | 5 (Herbicidal effect/phytotoxicity was 90% or greater)
C#CCN(C)c1cc(-c2c(Cl)n3n(c2=O)CCCC3)c(F)cc1Cl [Example 5-68] | 5 (Herbicidal effect/phytotoxicity was 90% or greater)
CC1(COc2cc(-c3c(Cl)n4n(c3=O)CCCC4)c(F)cc2Cl)CC(c2ccc(F)cc2)=NO1 (stereo not drawn) [Compound 4-7] | 5 (Herbicidal effect/phytotoxicity was 90% or greater)
O=c1c(-c2cc(Oc3c(F)cc(C(F)(F)F)cc3Cl)c(Cl)cc2F)c(Cl)n2n1CCCC2 [Example 1-254] | 5 (Herbicidal effect/phytotoxicity was 90% or greater)
CCOC(=CC(=O)OC(C)C)COc1cc(-c2c(Cl)n3n(c2=O)CCCC3)c(F)cc1Cl [Compound 2-26] | 5 (Herbicidal effect/phytotoxicity was 90% or greater)

These compounds were tested on Monochoria vaginalis (monochoria) in the same assay as above. Settings: 500 g a.i/ha, pre-emergence treatment, about 15 days after treatment, score 0-5.
Type: in vivo
Procedure: as §1, §2

Structure (SMILES) | Herbicidal effect Monochoria vaginalis
CCCOC(=CC(=O)OCC(C)C)COc1cc(-c2c(Cl)n3n(c2=O)CCCC3)c(F)cc1Cl [Compound 2-34] | 5 (Herbicidal effect/phytotoxicity was 90% or greater)
O=c1c(-c2ccc(F)cc2F)c(Cl)n2n1CCCC2 [Example 1-75] | 5 (Herbicidal effect/phytotoxicity was 90% or greater)
COc1cc(-c2c(Cl)n3n(c2=O)CCCCC3)c(Cl)cc1Cl [Example 1-293] | 5 (Herbicidal effect/phytotoxicity was 90% or greater)
COc1ccc(Oc2cc(-c3c(Cl)n4n(c3=O)CCCC4)c(F)cc2Cl)cc1 [Compound 3-7] | 5 (Herbicidal effect/phytotoxicity was 90% or greater)
C#CCN(C)c1cc(-c2c(Cl)n3n(c2=O)CCCC3)c(F)cc1Cl [Example 5-68] | 5 (Herbicidal effect/phytotoxicity was 90% or greater)
CC1(COc2cc(-c3c(Cl)n4n(c3=O)CCCC4)c(F)cc2Cl)CC(c2ccc(F)cc2)=NO1 (stereo not drawn) [Compound 4-7] | 5 (Herbicidal effect/phytotoxicity was 90% or greater)
O=c1c(-c2cc(Oc3c(F)cc(C(F)(F)F)cc3Cl)c(Cl)cc2F)c(Cl)n2n1CCCC2 [Example 1-254] | 5 (Herbicidal effect/phytotoxicity was 90% or greater)
CCOC(=CC(=O)OC(C)C)COc1cc(-c2c(Cl)n3n(c2=O)CCCC3)c(F)cc1Cl [Compound 2-26] | 5 (Herbicidal effect/phytotoxicity was 90% or greater)

The compounds below were run on other annual broad leaf weeds (Lindernia procumbens, Rotala indica, Elatine triandra) in the same assay as above. Settings: 500 g a.i/ha, pre-emergence treatment, about 15 days after treatment, score 0-5.
Type: in vivo
Procedure: as §1, §2

Structure (SMILES) | Herbicidal effect Broadleaf weed
CCCOC(=CC(=O)OCC(C)C)COc1cc(-c2c(Cl)n3n(c2=O)CCCC3)c(F)cc1Cl [Compound 2-34] | 5 (Herbicidal effect/phytotoxicity was 90% or greater)
O=c1c(-c2ccc(F)cc2F)c(Cl)n2n1CCCC2 [Example 1-75] | 5 (Herbicidal effect/phytotoxicity was 90% or greater)
COc1cc(-c2c(Cl)n3n(c2=O)CCCCC3)c(Cl)cc1Cl [Example 1-293] | 5 (Herbicidal effect/phytotoxicity was 90% or greater)
COc1ccc(Oc2cc(-c3c(Cl)n4n(c3=O)CCCC4)c(F)cc2Cl)cc1 [Compound 3-7] | 5 (Herbicidal effect/phytotoxicity was 90% or greater)
C#CCN(C)c1cc(-c2c(Cl)n3n(c2=O)CCCC3)c(F)cc1Cl [Example 5-68] | 5 (Herbicidal effect/phytotoxicity was 90% or greater)
CC1(COc2cc(-c3c(Cl)n4n(c3=O)CCCC4)c(F)cc2Cl)CC(c2ccc(F)cc2)=NO1 (stereo not drawn) [Compound 4-7] | 5 (Herbicidal effect/phytotoxicity was 90% or greater)
O=c1c(-c2cc(Oc3c(F)cc(C(F)(F)F)cc3Cl)c(Cl)cc2F)c(Cl)n2n1CCCC2 [Example 1-254] | 5 (Herbicidal effect/phytotoxicity was 90% or greater)
CCOC(=CC(=O)OC(C)C)COc1cc(-c2c(Cl)n3n(c2=O)CCCC3)c(F)cc1Cl [Compound 2-26] | 5 (Herbicidal effect/phytotoxicity was 90% or greater)
